Reference: patent US20260207578A1, “COMPOUND BASED ON SULFUR/OXYGEN SUBSTITUTED GLUTARIMIDE-BASED ISOINDOLINONE SKELETON AND USE THEREOF” (Gluetacs Therapeutics (Shanghai) Co., LTD., priority 2022, published 2026)

Assays:
IKZF1 = biological target: T1, IKZF1 (Homo sapiens, UniProt Q13422+Q96SW2); experiment: Western-blot assay, substrate protein in hPBMCs; assay type: cell-based; conditions: hPBMC cells, 24 hours, tested at 50 nM and 500 nM, table does not say which
T1 construct: endogenous in cells; host or cells: human PBMCs (Milecell Biotechnologies)
T1 sequence (Q13422 whole entry): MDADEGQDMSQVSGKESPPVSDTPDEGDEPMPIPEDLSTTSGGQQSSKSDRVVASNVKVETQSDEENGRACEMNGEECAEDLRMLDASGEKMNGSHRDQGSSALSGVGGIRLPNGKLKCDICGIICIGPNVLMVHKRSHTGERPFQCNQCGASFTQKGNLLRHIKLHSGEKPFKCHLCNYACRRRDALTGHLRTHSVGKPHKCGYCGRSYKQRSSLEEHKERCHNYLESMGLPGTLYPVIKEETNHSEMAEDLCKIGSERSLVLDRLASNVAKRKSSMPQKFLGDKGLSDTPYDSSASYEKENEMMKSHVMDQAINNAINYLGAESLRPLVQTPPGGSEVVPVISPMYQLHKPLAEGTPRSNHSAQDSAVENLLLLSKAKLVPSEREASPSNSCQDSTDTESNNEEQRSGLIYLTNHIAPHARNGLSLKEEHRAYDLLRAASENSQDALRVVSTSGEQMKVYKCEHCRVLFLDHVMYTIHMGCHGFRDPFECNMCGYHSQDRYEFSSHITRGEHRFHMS
T1 sequence (Q96SW2 whole entry): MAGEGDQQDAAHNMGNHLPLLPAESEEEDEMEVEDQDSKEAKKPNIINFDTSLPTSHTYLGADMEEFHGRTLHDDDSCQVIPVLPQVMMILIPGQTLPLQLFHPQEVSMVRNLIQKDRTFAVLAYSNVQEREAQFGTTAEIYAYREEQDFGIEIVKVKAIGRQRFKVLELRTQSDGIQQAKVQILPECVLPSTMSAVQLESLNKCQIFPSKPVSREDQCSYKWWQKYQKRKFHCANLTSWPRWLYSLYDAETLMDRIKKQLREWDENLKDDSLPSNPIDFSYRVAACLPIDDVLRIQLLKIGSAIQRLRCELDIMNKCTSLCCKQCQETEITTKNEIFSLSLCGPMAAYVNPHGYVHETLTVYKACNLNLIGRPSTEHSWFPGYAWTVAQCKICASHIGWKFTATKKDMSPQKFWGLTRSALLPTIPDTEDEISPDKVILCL
T1 sequence (Q16531 whole entry partner): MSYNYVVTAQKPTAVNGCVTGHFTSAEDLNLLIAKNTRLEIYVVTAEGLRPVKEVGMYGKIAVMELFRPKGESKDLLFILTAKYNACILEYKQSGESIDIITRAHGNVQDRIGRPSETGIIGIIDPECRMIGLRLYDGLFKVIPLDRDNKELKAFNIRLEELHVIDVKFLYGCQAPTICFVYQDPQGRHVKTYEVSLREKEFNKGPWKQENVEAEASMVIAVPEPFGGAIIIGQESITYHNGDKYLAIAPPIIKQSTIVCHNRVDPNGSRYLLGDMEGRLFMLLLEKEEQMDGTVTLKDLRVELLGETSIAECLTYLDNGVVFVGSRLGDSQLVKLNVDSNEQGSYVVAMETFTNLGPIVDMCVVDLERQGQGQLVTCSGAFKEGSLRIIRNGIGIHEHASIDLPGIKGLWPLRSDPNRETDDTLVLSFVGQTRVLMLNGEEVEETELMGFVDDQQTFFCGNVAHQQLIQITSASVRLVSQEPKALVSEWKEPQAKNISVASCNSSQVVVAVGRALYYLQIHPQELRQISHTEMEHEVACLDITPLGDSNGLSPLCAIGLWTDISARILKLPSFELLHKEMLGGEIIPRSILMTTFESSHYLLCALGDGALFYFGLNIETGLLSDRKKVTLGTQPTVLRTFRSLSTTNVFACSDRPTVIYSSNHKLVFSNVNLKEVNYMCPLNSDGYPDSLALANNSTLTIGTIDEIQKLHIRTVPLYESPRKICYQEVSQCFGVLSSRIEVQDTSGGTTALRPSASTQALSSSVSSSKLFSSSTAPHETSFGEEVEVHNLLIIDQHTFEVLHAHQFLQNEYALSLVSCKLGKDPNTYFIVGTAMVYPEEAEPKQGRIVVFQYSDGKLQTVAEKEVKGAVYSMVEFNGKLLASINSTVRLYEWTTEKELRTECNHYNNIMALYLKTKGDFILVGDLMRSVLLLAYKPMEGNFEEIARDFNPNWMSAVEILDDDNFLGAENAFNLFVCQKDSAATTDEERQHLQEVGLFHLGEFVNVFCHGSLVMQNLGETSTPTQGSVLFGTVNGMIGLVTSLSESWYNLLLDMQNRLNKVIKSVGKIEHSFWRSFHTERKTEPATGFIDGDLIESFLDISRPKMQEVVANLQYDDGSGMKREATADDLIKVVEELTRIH
Outline: (§1)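 hPBMCs (1×10^6 cells/mL) exposed 24 h to compound at 50 nM and 500 nM, lysed, and probed by Western blot. Band grayscale normalized to internal control gives % protein remaining versus DMSO; DC50 from concentration-response fit at half DMSO band intensity.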

IKZF3 = biological target: T2, IKZF3 (Homo sapiens, UniProt Q96SW2+Q9UKT9); experiment: Western-blot assay, substrate protein in hPBMCs; assay type: cell-based; conditions: hPBMC cells, 24 hours, tested at 50 nM and 500 nM, table does not say which
T2 construct: endogenous in cells; host or cells: human PBMCs (Milecell Biotechnologies)
Outline: as §1

[1] = biological target: T3, human Cereblon WT GST-tagged protein (Homo sapiens, UniProt Q96SW2); experiment: CRBN-binding affinity, HTRF (CEREBLON BINDING kit); conditions: displacement of Thalidomide-Re reagent, 3 hours at room temperature
T3 construct: purchased CISBIO 64BDCRBNPEH
T3 sequence (Q96SW2 whole entry): as the sequence (Q96SW2 whole entry) above
Outline: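 Compounds displace a thalidomide-Re tracer from GST-tagged human Cereblon WT, detected with an Eu-labelled anti-GST antibody by time-resolved fluorescence. Signal at 620 nm was normalised against solvent and blank controls.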

GSPT1 = biological target: T4, GSPT1 (Homo sapiens, UniProt P15170+Q96SW2); experiment: Western-blot assay, substrate protein in hPBMCs; assay type: cell-based; conditions: hPBMC cells, 24 hours, tested at 50 nM and 500 nM, table does not say which
T4 construct: endogenous in cells; host or cells: human PBMCs (Milecell Biotechnologies)
T4 sequence (P15170 whole entry): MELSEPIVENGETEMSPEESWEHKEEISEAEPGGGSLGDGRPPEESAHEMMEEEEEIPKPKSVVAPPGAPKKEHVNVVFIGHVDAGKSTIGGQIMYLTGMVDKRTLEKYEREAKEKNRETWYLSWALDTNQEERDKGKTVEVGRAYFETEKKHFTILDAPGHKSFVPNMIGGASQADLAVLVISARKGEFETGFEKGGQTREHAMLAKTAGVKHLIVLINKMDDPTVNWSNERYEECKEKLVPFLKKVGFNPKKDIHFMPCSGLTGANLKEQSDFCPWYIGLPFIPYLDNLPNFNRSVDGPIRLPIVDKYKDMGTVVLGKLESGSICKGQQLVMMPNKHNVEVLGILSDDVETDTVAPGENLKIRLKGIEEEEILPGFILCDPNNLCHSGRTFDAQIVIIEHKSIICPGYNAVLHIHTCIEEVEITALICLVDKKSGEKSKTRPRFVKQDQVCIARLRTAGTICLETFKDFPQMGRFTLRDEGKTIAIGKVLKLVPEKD
T4 sequence (Q96SW2 whole entry): as the sequence (Q96SW2 whole entry) above
T4 sequence (Q16531 whole entry partner): as the sequence (Q16531 whole entry partner) above
Outline: (§2)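 Thawed hPBMCs, 1×10^6 cells/mL; 24 h compound; RIPA + phosphatase inhibitor lysis, BCA-normalised loading, SDS-PAGE, NC transfer, immunodetection. Bands vs internal control → % remaining; DC50 = concentration at 50% of DMSO band intensity.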

CK1α = biological target: T5, CK1α (Homo sapiens, UniProt P48729+Q96SW2); experiment: Western-blot assay, substrate protein in hPBMCs; assay type: cell-based; conditions: hPBMC cells, 24 hours, tested at 50 nM and 500 nM, table does not say which
T5 construct: endogenous in cells; host or cells: human PBMCs (Milecell Biotechnologies)
T5 sequence (P48729 whole entry): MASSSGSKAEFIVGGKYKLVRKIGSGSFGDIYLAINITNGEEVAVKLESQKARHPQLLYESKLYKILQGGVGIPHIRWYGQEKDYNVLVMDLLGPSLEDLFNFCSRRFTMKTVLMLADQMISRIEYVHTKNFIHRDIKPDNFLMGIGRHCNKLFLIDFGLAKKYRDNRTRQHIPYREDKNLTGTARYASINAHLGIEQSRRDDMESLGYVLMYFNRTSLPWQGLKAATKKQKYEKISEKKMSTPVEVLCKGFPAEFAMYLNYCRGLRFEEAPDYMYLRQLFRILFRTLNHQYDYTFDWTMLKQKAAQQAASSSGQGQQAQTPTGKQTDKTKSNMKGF
T5 sequence (Q96SW2 whole entry): as the sequence (Q96SW2 whole entry) above
T5 sequence (Q16531 whole entry partner): as the sequence (Q16531 whole entry partner) above
Outline: as §2

IKZF2 = biological target: T6, IKZF2 (Homo sapiens, UniProt Q96SW2+Q9UKS7); experiment: Western-blot assay, substrate protein in hPBMCs; assay type: cell-based; conditions: hPBMC cells, 24 hours, tested at 50 nM and 500 nM, table does not say which
T6 construct: endogenous in cells; host or cells: human PBMCs (Milecell Biotechnologies)
T6 sequence (Q9UKS7 whole entry): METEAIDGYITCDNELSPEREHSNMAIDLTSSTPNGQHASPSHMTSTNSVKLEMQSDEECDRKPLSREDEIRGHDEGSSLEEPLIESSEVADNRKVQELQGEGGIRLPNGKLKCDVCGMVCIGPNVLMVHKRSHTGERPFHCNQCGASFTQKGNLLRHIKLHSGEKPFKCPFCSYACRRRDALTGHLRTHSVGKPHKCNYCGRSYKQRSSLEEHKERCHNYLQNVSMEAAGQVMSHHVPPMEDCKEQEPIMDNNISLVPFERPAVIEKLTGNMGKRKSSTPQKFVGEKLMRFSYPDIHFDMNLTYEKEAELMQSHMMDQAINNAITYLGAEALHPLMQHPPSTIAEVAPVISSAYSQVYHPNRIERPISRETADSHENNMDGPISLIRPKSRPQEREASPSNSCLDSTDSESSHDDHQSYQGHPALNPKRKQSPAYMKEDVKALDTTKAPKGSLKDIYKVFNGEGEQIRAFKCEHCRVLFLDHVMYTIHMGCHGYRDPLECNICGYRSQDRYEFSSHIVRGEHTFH
T6 sequence (Q96SW2 whole entry): as the sequence (Q96SW2 whole entry) above
T6 sequence (Q16531 whole entry partner): as the sequence (Q16531 whole entry partner) above
Outline: as §2

Wee1 = biological target: T7, Wee1 (Homo sapiens, UniProt P30291+Q96SW2); experiment: Western-blot assay, substrate protein in hPBMCs; assay type: cell-based; conditions: hPBMC cells, 24 hours, tested at 50 nM and 500 nM, table does not say which
T7 construct: endogenous in cells; host or cells: human PBMCs (Milecell Biotechnologies)
T7 sequence (P30291 whole entry): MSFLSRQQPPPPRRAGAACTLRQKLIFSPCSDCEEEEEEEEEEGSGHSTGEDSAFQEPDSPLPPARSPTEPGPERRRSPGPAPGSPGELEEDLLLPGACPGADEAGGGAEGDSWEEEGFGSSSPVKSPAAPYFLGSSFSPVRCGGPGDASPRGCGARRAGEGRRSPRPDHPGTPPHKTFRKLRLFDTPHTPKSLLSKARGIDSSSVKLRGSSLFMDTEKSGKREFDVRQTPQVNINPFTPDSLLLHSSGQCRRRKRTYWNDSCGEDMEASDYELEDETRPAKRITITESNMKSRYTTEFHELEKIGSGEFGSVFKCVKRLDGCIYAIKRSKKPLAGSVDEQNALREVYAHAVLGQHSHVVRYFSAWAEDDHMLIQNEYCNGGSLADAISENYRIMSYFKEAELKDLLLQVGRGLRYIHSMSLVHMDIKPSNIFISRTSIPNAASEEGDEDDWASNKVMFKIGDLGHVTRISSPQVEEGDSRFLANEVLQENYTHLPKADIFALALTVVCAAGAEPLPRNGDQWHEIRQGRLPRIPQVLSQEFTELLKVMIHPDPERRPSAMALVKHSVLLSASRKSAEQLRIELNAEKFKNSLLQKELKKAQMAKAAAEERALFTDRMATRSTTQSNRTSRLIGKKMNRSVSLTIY
T7 sequence (Q96SW2 whole entry): as the sequence (Q96SW2 whole entry) above
T7 sequence (Q16531 whole entry partner): as the sequence (Q16531 whole entry partner) above
Outline: as §2

| Compound | substrate protein remaining % (IKZF1) | substrate protein remaining % (IKZF3) | IC50 [1] [nM] | substrate protein remaining % (GSPT1) | substrate protein remaining % (CK1α) | substrate protein remaining % (IKZF2) | substrate protein remaining % (Wee1) |
| --- | --- | --- | --- | --- | --- | --- | --- |
| CC1(C)CCC(CN2CC(Sc3ccc4c(c3)CN(C3CCC(=O)NC3=O)C4=O)C2)=C(c2ccc(F)cc2)C1 (stereo not drawn) [GT-03457, 3-(5-((1-((4′-fluoro-5,5-dimethyl-3,4,5,6-tetrahydro-[1,1′-biphenyl]-2-yl)methyl)azetidin-3-yl)thio)-1-oxoisoindolin-2-yl)piperidine-2,6-dione] | A (0%≤ substrate protein remaining % ≤80%) | A (0%≤ substrate protein remaining % ≤80%) | < 500 | A (0%≤ substrate protein remaining % ≤80%) | A (0%≤ substrate protein remaining % ≤80%) | A (0%≤ substrate protein remaining % ≤80%) | – |
| CC1(C)CCC(CN2CC(Oc3ccc4c(c3)CN(C3CCC(=O)NC3=O)C4=O)C2)=C(c2ccc(F)cc2)C1 (stereo not drawn) [GT-03459, 3-(5-((1-((4′-fluoro-5,5-dimethyl-3,4,5,6-tetrahydro-[1,1′-biphenyl]-2-yl)methyl)azetidin-3-yl)oxy)-1-oxoisoindolin-2-yl)piperidine-2,6-dione] | A (0%≤ substrate protein remaining % ≤80%) | A (0%≤ substrate protein remaining % ≤80%) | 500 to 1000 | A (0%≤ substrate protein remaining % ≤80%) | A (0%≤ substrate protein remaining % ≤80%) | A (0%≤ substrate protein remaining % ≤80%) | A (0%≤ substrate protein remaining % ≤80%) |
| O=C1CCC(N2Cc3cc(OC4CCN(C(c5ccccc5)c5ccccc5)CC4)ccc3C2=O)C(=O)N1 (stereo not drawn) [GT-06195, 3-(5-((1-benzhydrylpiperidin-4-yl)oxy)-1-oxoisoindolin-2-yl)piperidine-2,6-dione] | A (0%≤ substrate protein remaining % ≤80%) | A (0%≤ substrate protein remaining % ≤80%) | < 500 | A (0%≤ substrate protein remaining % ≤80%) | A (0%≤ substrate protein remaining % ≤80%) | – | A (0%≤ substrate protein remaining % ≤80%) |
| O=C1CCC(N2Cc3cc(SC4CN(C(c5cccc(F)c5)c5cccc(F)c5)C4)ccc3C2=O)C(=O)N1 (stereo not drawn) [GT-06349, 3-(5-((1-(bis(3-fluorophenyl)methyl)azetidin-3-yl)thio)-1-oxoisoindolin-2-yl)piperidine-2,6-dione] | A (0%≤ substrate protein remaining % ≤80%) | A (0%≤ substrate protein remaining % ≤80%) | 500 to 1000 | A (0%≤ substrate protein remaining % ≤80%) | A (0%≤ substrate protein remaining % ≤80%) | A (0%≤ substrate protein remaining % ≤80%) | – |
| O=C1CCC(N2Cc3cc(SC4CN(Cc5cnc(-c6ccccc6)cn5)C4)ccc3C2=O)C(=O)N1 (stereo not drawn) [GT-06350, 3-(1-oxo-5-((1-((5-phenylpyrazin-2-yl)methyl)azetidin-3-yl)thio)isoindolin-2-yl)piperidine-2,6-dione] | A (0%≤ substrate protein remaining % ≤80%) | A (0%≤ substrate protein remaining % ≤80%) | < 500 | A (0%≤ substrate protein remaining % ≤80%) | A (0%≤ substrate protein remaining % ≤80%) | A (0%≤ substrate protein remaining % ≤80%) | – |
| O=C1CCC(N2Cc3cc(SC4CN(CC5=C(c6ccc(Cl)cc6)CCOC5)C4)ccc3C2=O)C(=O)N1 (stereo not drawn) [GT-06351, 3-(5-((1-((4-(4-chlorophenyl)-5,6-dihydro-2H-pyran-3-yl)methyl)azetidin-3-yl)thio)-1-oxoisoindolin-2-yl)piperidine-2,6-dione] | A (0%≤ substrate protein remaining % ≤80%) | A (0%≤ substrate protein remaining % ≤80%) | < 500 | A (0%≤ substrate protein remaining % ≤80%) | A (0%≤ substrate protein remaining % ≤80%) | A (0%≤ substrate protein remaining % ≤80%) | – |
| O=C1CCC(N2Cc3cc(OC4CN(Cc5cnc(-c6ccccc6)cn5)C4)ccc3C2=O)C(=O)N1 (stereo not drawn) [GT-06353, 3-(1-oxo-5-((1-((5-phenylpyrazin-2-yl)methyl)azetidin-3-yl)oxy)isoindolin-2-yl)piperidine-2,6-dione] | A (0%≤ substrate protein remaining % ≤80%) | A (0%≤ substrate protein remaining % ≤80%) | 500 to 1000 | A (0%≤ substrate protein remaining % ≤80%) | A (0%≤ substrate protein remaining % ≤80%) | – | A (0%≤ substrate protein remaining % ≤80%) |
| O=C1CCC(N2Cc3cc(OC4CN(CC5=C(c6ccc(Cl)cc6)CCOC5)C4)ccc3C2=O)C(=O)N1 (stereo not drawn) [GT-06354, 3-(5-((1-((4-(4-chlorophenyl)-5,6-dihydro-2H-pyran-3-yl)methyl)azetidin-3-yl)oxy)-1-oxoisoindolin-2-yl)piperidine-2,6-dione] | A (0%≤ substrate protein remaining % ≤80%) | A (0%≤ substrate protein remaining % ≤80%) | < 500 | A (0%≤ substrate protein remaining % ≤80%) | A (0%≤ substrate protein remaining % ≤80%) | – | A (0%≤ substrate protein remaining % ≤80%) |
| CC1(C)CC(c2ccc(Cl)cc2)=C(CN2CC(Sc3ccc4c(c3)CN(C3CCC(=O)NC3=O)C4=O)C2)CO1 (stereo not drawn) [GT-06514, 3-(5-((1-((4-(4-chlorophenyl)-6,6-dimethyl-5,6-dihydro-2H-pyran-3-yl)methyl)azetidin-3-yl)thio)-1-oxoisoindolin-2-yl)piperidine-2,6-dione] | A (0%≤ substrate protein remaining % ≤80%) | A (0%≤ substrate protein remaining % ≤80%) | 500 to 1000 | A (0%≤ substrate protein remaining % ≤80%) | – | A (0%≤ substrate protein remaining % ≤80%) | A (0%≤ substrate protein remaining % ≤80%) |
| CC1(C)CCC(CN2CC(Sc3cccc4c3CN(C3CCC(=O)NC3=O)C4=O)C2)=C(c2ccc(Cl)cc2)C1 (stereo not drawn) [GT-06515, 3-(4-((1-((4′-chloro-5,5-dimethyl-3,4,5,6-tetrahydro-[1,1′-biphenyl]-2-yl)methyl)azetidin-3-yl)thio)-1-oxoisoindolin-2-yl)piperidine-2,6-dione] | A (0%≤ substrate protein remaining % ≤80%) | A (0%≤ substrate protein remaining % ≤80%) | 500 to 1000 | A (0%≤ substrate protein remaining % ≤80%) | A (0%≤ substrate protein remaining % ≤80%) | – | A (0%≤ substrate protein remaining % ≤80%) |
| O=C1CCC(N2Cc3cc(SC4CN(C(c5ccccn5)c5ccccn5)C4)ccc3C2=O)C(=O)N1 (stereo not drawn) [GT-06811, 3-(5-((1-(di(pyridin-2-yl)methyl)azetidin-3-yl)thio)-1-oxoisoindolin-2-yl)piperidine-2,6-dione] | A (0%≤ substrate protein remaining % ≤80%) | A (0%≤ substrate protein remaining % ≤80%) | < 500 | A (0%≤ substrate protein remaining % ≤80%) | – | A (0%≤ substrate protein remaining % ≤80%) | A (0%≤ substrate protein remaining % ≤80%) |
| O=C1CCC(N2Cc3cc(SC4CC5CN(C(c6ccccc6)c6ccccc6)CC5C4)ccc3C2=O)C(=O)N1 (stereo not drawn) [GT-06922, 3-(5-((2-benzhydryloctahydro-cyclopenta[c]pyrrol-5-yl)thio)-1-oxoisoindolin-2-yl)piperidine-2,6-dione] | A (0%≤ substrate protein remaining % ≤80%) | A (0%≤ substrate protein remaining % ≤80%) | < 500 | A (0%≤ substrate protein remaining % ≤80%) | A (0%≤ substrate protein remaining % ≤80%) | – | A (0%≤ substrate protein remaining % ≤80%) |
| CC1(C)CCC(CN2CCC3(CC2)CC(Oc2ccc4c(c2)CN(C2CCC(=O)NC2=O)C4=O)C3)=C(c2ccc(Cl)cc2)C1 (stereo not drawn) [GT-06933, 3-(5-((7-((4′-chloro-5,5-dimethyl-3,4,5,6-tetrahydro-[1,1′-biphenyl]-2-yl)methyl)-7-azaspiro[3.5]nonan-2-yl)oxy)-1-oxoisoindolin-2-yl)piperidine-2,6-dione] | A (0%≤ substrate protein remaining % ≤80%) | A (0%≤ substrate protein remaining % ≤80%) | 1000 to 1900 | – | – | A (0%≤ substrate protein remaining % ≤80%) | A (0%≤ substrate protein remaining % ≤80%) |
